Numbered stars: 1 amine (or outer) side, 2 acyl side, 3 side chain; on linkers, the order of the positions; unused ones are H or OH. Bridge positions count the residues as written; N and C are the ends. Square brackets hold non-standard residues; d marks the D form. Ends that are not written are not given here. I, II: the chains in the order shown. * marks the point of attachment. C18 diacid = O=C(O)CCCCCCCCCCCCCCCCC(=O)*; γGlu = O=C(O)[C@H](CCC(=O)[*:2])N[*:1]; Aib = CC(C)(N)C(=O)O
Assays:
[1] = Pharmacokinetic study in minipigs (i.v.); conditions: male, Göttingen, minipig, in vivo, iv, 2 nmol/kg
Experimental: (§1) The purpose of this study is to determine the protraction in vivo of the GLP-1 derivatives after i.v. administration to minipigs, i.e. the prolongation of their time in the body and thereby their time of action. This is done in a pharmacokinetic (PK) study, where the terminal half-life of the derivative in question is determined. By terminal half-life is meant the time it takes to halve a certain plasma concentration in the terminal elimination phase.
(§2) Male Göttingen minipigs were obtained from Ellegaard Göttingen Minipigs (Dalmose, Denmark) approximately 7-14 months of age and weighing approximately 16-35 kg were used in the studies. The minipigs were housed either individually (pigs with permanent catheters) or in a group and fed restrictedly once or twice daily with SDS minipig diet (Special Diets Services, Essex, UK).
(§3) After at least 2 weeks of acclimatisation two permanent central venous catheters were implanted in vena cava caudalis or cranialis in each animal. The animals were allowed 1 week recovery after the surgery, and were then used for repeated pharmacokinetic studies with a suitable wash-out period between successive GLP-1 derivative dosings.
(§4) Blood samples (for example 0.8 ml) were collected in EDTA buffer (8 mM) and then centrifuged at 4° C. and 1942G for 10 minutes.
(§5) Plasma was pipetted into Micronic tubes on dry ice, and kept at −20° C. until analysed for plasma concentration of the respective GLP-1 compound using LOCI. Individual plasma concentration-time profiles were analyzed by a non-compartmental pharmacokinetic method in Phoenix v. 6.2 (Pharsight Inc., Mountain View, Calif., USA), or other relevant software for PK analysis, and the resulting terminal half-lives (harmonic mean) determined.

human GLP-1 receptor [2] = target: T1, human GLP-1 receptor (Homo sapiens, UniProt P43220); test: GLP-1 receptor binding: competitive binding assay (125I-GLP-1, SPA) on isolated membranes at low and high HSA; conditions: displacement of 125I-GLP-1; for IC50: high serum albumin (2.0% HSA final assay concentration)
T1 construct: expressed in transfected cells; host or cells: BHK cells (parent line BHKTS13), clone FCW467-12A; membrane preparation
T1 sequence (P43220 24-463): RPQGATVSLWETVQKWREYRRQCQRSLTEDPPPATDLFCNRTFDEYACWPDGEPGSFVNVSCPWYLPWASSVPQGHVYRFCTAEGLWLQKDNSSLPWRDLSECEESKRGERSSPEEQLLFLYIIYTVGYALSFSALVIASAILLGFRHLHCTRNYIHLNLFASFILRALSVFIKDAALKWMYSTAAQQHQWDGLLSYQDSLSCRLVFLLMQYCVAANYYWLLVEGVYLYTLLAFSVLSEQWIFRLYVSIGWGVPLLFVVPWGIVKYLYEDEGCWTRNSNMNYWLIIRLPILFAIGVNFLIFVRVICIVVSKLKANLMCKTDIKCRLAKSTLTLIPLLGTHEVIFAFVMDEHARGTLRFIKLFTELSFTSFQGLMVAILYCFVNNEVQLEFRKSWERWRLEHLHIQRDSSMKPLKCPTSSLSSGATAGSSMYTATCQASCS
Experimental: The purpose of this example is to test the receptor binding of the GLP-1 derivatives in vitro. The receptor binding is a measure of affinity of a derivative for the human GLP-1 receptor.
In this type of assay a labelled ligand (in this case ^125I-GLP-1) is bound to the receptor. Each derivative is added in a series of concentrations to isolated membranes containing the human GLP-1 receptor and displacement of the labelled ligand is monitored. The receptor binding is reported as the concentration at which half of the labelled ligand is displaced from the receptor, the IC50 value.
The following chemicals were used in the assay: Human serum albumin (HSA) (Sigma A1653), DMEM w/o phenol red (Gibco 11880-028), Pen/strep (Invitrogen 15140-122), G418 (Invitrogen 10131-027), 1 M Hepes (Gibco 15630), EDTA (Invitrogen 15575-038), PBS (Invitrogen 14190-094), fetal calf serum (Invitrogen 16140-071), EGTA, MgCl2 (Merck 1.05832.1000), Tween 20 (Amresco 0850C335), SPA particles (wheat germ agglutinin (WGA) SPA beads, Perkin Elmer RPNQ0001), [^125I]-GLP-1]-(7-36)NH2 (produced in-house), OptiPlate™-96 (Packard 6005290).
Buffer 1 consisted of 20 mM Na-HEPES plus 10 mM EDTA and pH was adjusted to 7.4. Buffer 2 consisted of 20 mM Na-HEPES plus 0.1 mM EDTA and pH was adjusted to 7.4. Assay buffer consisted of 50 mM HEPES supplemented with 5 mM EGTA, 5 mM MgCl2, 0.005% Tween 20 and pH was adjusted to 7.4. An 8% albumin stock consisted of HSA dissolved at 8% (w/v) in assay buffer. An 0.02% albumin stock consisted of HSA dissolved at 0.02% (w/v) in assay buffer.
The cells express the human GLP-1 receptor.
The cells were grown at 5% CO2 in DMEM, 10% fetal calf serum, 1% Pen/Strep (Penicillin/Streptomycin) and 1.0 mg/ml of the selection marker G418.
To make a membrane preparation the cells were grown to approximately 80% confluence. The cells were washed twice in phosphate-buffered saline and harvested. The cells were pelleted using a brief centrifugation and the cell pellet was kept on ice. The cell pellet was homogenised with ULTRA-THURRAX™ dispersing instrument for 20-30 seconds in a suitable amount of buffer 1 (e.g., 10 ml). The homogenate was centrifuged for 15 minutes. The pellet was re-suspended (homogenised) in 10 ml buffer 2 and centrifuged. This step was repeated once more. The resulting pellet was re-suspended in buffer 2 and the protein concentration was determined. The membranes were aliquoted and stored at minus 80° C.
For the receptor binding assay in the presence of low HSA (0.005%) 50 μl of the assay buffer was added to each well of an assay plate. Assay continued with step 3.
For the receptor binding assay in the presence of high HSA (2%) 50 μl of the 8% albumin stock was added to each well of an assay plate. Assay continued with step 3.
Cell membrane aliquots were thawed and diluted to their working concentration. Fifty μl were added to each well in the assay plate.
WGA SPA beads were suspended in assay buffer at 20 mg/ml. The suspension was diluted to 10 mg/ml in assay buffer just prior to addition to the assay plate. Fifty μl were added to each well in the assay plate.
The incubation was started by adding 25 μl of 480 pM solution of [^125I]-GLP-1]-(7-36)NH2 to each well of the assay plate. A 25 μl aliquot was reserved for measuring total counts/well.
The assay plate was incubated for 2 h at 30° C.
The assay plate was centrifuged for 10 min.
The assay plate was read in a Packard TopCount NXT instrument.
The data from the TopCount instrument were transferred to GraphPad Prism software. The software averaged the values for the replicates and performed a non-linear regression. IC50 values were calculated by the software and reported in nM.

human GLP-1 receptor [3] = target: T1, human GLP-1 receptor; test: In vitro potency: CRE luciferase reporter gene assay in BHK cells expressing the human GLP-1 receptor; type: cell-based; conditions: whole cell reporter gene assay, BHK clone FCW467-12A/KZ10-1; averages of at least two replicates
Experimental: The purpose of this example is to test the activity, or potency, of the GLP-1 derivatives in vitro. The in vitro potency is the measure of human GLP-1 receptor activation in a whole cell assay.
In vitro potency was determined by measuring the response of the human GLP-1 receptor in a reporter gene assay. The assay was performed in a stably transfected BHK cell line that expresses the human GLP-1 receptor and contains the DNA for the cAMP response element (CRE) coupled to a promoter and the gene for firefly luciferase (CRE luciferase). When the human GLP-1 receptor is activated it results in the production of cAMP, which in turn results in the luciferase protein being expressed. When assay incubation is completed the luciferase substrate (luciferin) is added and the enzyme converts luciferin to oxyluciferin to produce bioluminescence. The luminescence is measured as the readout for the assay.
The cells were cultured at 5% CO2 in Cell Culture Medium. They were aliquoted and stored in liquid nitrogen. Before each assay an aliquot is taken up and washed twice in PBS before being suspended at the desired concentration in the assay specific buffer. For 96-well plates the suspension was made to give a final concentration of 5×10^3 cells/well.
The following chemicals were used in the assay: Pluronic F-68 (10%) (Gibco 2404), human serum albumin (HSA) (Sigma A9511), ovalbumin (Sigma A5503), DMEM w/o phenol red (Gibco 11880-028), 1 M Hepes (Gibco 15630), Glutamax 100× (Gibco 35050) and steadylite plus (PerkinElmer 6016757).
Cell Culture Medium consisted of DMEM medium with 10% FBS (Fetal Bovine Serum; Invitrogen 16140-071), 1 mg/ml G418 (Invitrogen 15140-122), 240 nM MTX (methotrexate; Sigma M9929) and 1% pen/strep (penicillin/streptomycin; Invitrogen 15140-122).
Assay Medium consisted of DMEM w/o phenol red, 10 mM Hepes and 1× Glutamax. The Assay Buffer consisted of 2% ovalbumin and 0.2% Pluronic F-68 in Assay Medium.
1) Cell stocks were thawed in a 37° C. water bath.
2) Cells were washed three times in PBS.
3) The cells were counted and adjusted to 5×10^3 cells/50 μl (1×10^5 cells/ml) in Assay Medium. A 50 μl aliquot of cells was transferred to each well in the assay plate.
4) Stocks of the test compounds and reference compounds were diluted to a concentration of 0.2 pM in Assay Buffer. […] Compounds were tested at the following final concentrations: 1×10^−7 M, 1×10^−8 M; 1×10^−9 M, 1×10^−10 M, 1×10^−11 M, 1×10^−12 M, 1×10^−13 M, and 1×10^−14 M. 6) The assay plate was incubated for 3 h in a 5% CO2 incubator at 37° C. 7) The assay plate was removed from the incubator and allowed to stand at room temperature for 15 min. 8) A 100 μl aliquot of steadylite plus reagent was added to each well of the assay plate (reagent was light sensitive). 9) Each assay plate was covered with aluminum foil to protect it from light and shaken for 30 min at room temperature. 10) Each assay plate was read in a Packard TopCount NXT instrument. Calculations and Results
The data from the TopCount instrument were transferred to GraphPad Prism software. The software performs a non-linear regression (log(agonist) vs response).
A minimum of two replicates was measured for each sample. The reported values are averages of the replicates.

in vivo = conditions: male, Göttingen, minipig, iv
Experimental: as §1, §2, §3, §4, §5

Compound | half-life [1] | IC50 (human GLP-1 receptor [2]) | EC50 (human GLP-1 receptor [3]) | half-life (in vivo) | Low HSA IC50 (human GLP-1 receptor [2]; Low HSA IC50, low serum albumin (max. 0.001% final assay concentration))
CC[C@H](C)[C@H](NC(=O)[C@H](Cc1ccccc1)NC(=O)[C@H](CCC(=O)O)NC(=O)[C@H](CCCNC(=N)N)NC(=O)[C@H](C)NC(=O)[C@H](C)NC(=O)[C@H](CCC(N)=O)NC(=O)[C@H](CCCCNC(=O)COCCOCCNC(=O)COCCOCCNC(=O)CC[C@H](NC(=O)[C@H]1CC[C@H](CNC(=O)CCCCCCCCCCCCCCCS(=O)(=O)O)CC1)C(=O)O)NC(=O)[C@H](CCC(=O)O)NC(=O)[C@H](CC(C)C)NC(=O)[C@H](Cc1ccc(O)cc1)NC(=O)[C@H](CCCCNC(=O)COCCOCCNC(=O)COCCOCCNC(=O)CC[C@H](NC(=O)[C@H]1CC[C@H](CNC(=O)CCCCCCCCCCCCCCCS(=O)(=O)O)CC1)C(=O)O)NC(=O)[C@H](CO)NC(=O)[C@@H](NC(=O)[C@H](CC(=O)O)NC(=O)[C@H](CO)NC(=O)[C@@H](NC(=O)[C@H](Cc1ccccc1)NC(=O)[C@@H](NC(=O)CNC(=O)[C@H](CCC(=O)O)NC(=O)C(C)(C)NC(=O)[C@@H](N)Cc1c[nH]cn1)[C@@H](C)O)[C@@H](C)O)C(C)C)C(=O)N[C@@H](CCCCNC(=O)COCCOCCNC(=O)COCCOCCNC(=O)CC[C@H](NC(=O)[C@H]1CC[C@H](CNC(=O)CCCCCCCCCCCCCCCS(=O)(=O)O)CC1)C(=O)O)C(=O)N[C@@H](Cc1c[nH]c2ccccc12)C(=O)N[C@@H](CC(C)C)C(=O)N[C@H](C(=O)N[C@@H](CCCNC(=N)N)C(=O)NCC(=O)N[C@@H](CCCNC(=N)N)C(=O)NCC(=O)O)C(C)C [Example 1] | 162 h | – | – | – | –
CC[C@H](C)[C@H](NC(=O)[C@H](Cc1ccccc1)NC(=O)[C@H](CCC(=O)O)NC(=O)[C@H](CCCNC(=N)N)NC(=O)[C@H](C)NC(=O)[C@H](C)NC(=O)[C@H](CCC(N)=O)NC(=O)[C@H](CCCCNC(=O)COCCOCCNC(=O)COCCOCCNC(=O)[C@@H](N)CCCCNC(=O)[C@@H](N)CCCCNC(=O)CCCCCCCCCCCCCCCS(=O)(=O)O)NC(=O)[C@H](CCC(=O)O)NC(=O)[C@H](CC(C)C)NC(=O)[C@H](Cc1ccc(O)cc1)NC(=O)[C@H](CCCCNC(=O)COCCOCCNC(=O)COCCOCCNC(=O)[C@@H](N)CCCCNC(=O)[C@@H](N)CCCCNC(=O)CCCCCCCCCCCCCCCS(=O)(=O)O)NC(=O)[C@H](CO)NC(=O)[C@@H](NC(=O)[C@H](CC(=O)O)NC(=O)[C@H](CO)NC(=O)[C@@H](NC(=O)[C@H](Cc1ccccc1)NC(=O)[C@@H](NC(=O)CNC(=O)[C@H](CCC(=O)O)NC(=O)C(C)(C)NC(=O)[C@@H](N)Cc1c[nH]cn1)[C@@H](C)O)[C@@H](C)O)C(C)C)C(=O)N[C@@H](CCCCNC(=O)COCCOCCNC(=O)COCCOCCNC(=O)[C@@H](N)CCCCNC(=O)[C@@H](N)CCCCNC(=O)CCCCCCCCCCCCCCCS(=O)(=O)O)C(=O)N[C@@H](Cc1c[nH]c2ccccc12)C(=O)N[C@@H](CC(C)C)C(=O)N[C@H](C(=O)N[C@@H](CCCNC(=N)N)C(=O)NCC(=O)N[C@@H](CCCNC(=N)N)C(=O)NCC(=O)O)C(C)C [Example 14] | – | 100 nM | 0.018 nM | 140 h | –
CC[C@H](C)[C@H](NC(=O)[C@H](Cc1ccccc1)NC(=O)[C@H](CCC(=O)O)NC(=O)[C@H](CCCNC(=N)N)NC(=O)[C@H](C)NC(=O)[C@H](C)NC(=O)[C@H](CCC(N)=O)NC(=O)[C@H](CCCCNC(=O)COCCOCCNC(=O)COCCOCCNC(=O)COCCOCCNC(=O)COCCOCCNC(=O)COCCOCCNC(=O)[C@@H](N)CCCCNC(=O)[C@@H](N)CCCCNC(=O)CCCCCCCCCCCCCCCCC(=O)O)NC(=O)[C@H](CCC(=O)O)NC(=O)[C@H](CC(C)C)NC(=O)[C@H](Cc1ccc(O)cc1)NC(=O)[C@H](CCCCNC(=O)COCCOCCNC(=O)COCCOCCNC(=O)COCCOCCNC(=O)COCCOCCNC(=O)COCCOCCNC(=O)[C@@H](N)CCCCNC(=O)[C@@H](N)CCCCNC(=O)CCCCCCCCCCCCCCCCC(=O)O)NC(=O)[C@H](CO)NC(=O)[C@@H](NC(=O)[C@H](CC(=O)O)NC(=O)[C@H](CO)NC(=O)[C@@H](NC(=O)[C@H](Cc1ccccc1)NC(=O)[C@@H](NC(=O)CNC(=O)[C@H](CCC(=O)O)NC(=O)C(C)(C)NC(=O)[C@@H](N)Cc1c[nH]cn1)[C@@H](C)O)[C@@H](C)O)C(C)C)C(=O)N[C@@H](CCCCNC(=O)COCCOCCNC(=O)COCCOCCNC(=O)COCCOCCNC(=O)COCCOCCNC(=O)COCCOCCNC(=O)[C@@H](N)CCCCNC(=O)[C@@H](N)CCCCNC(=O)CCCCCCCCCCCCCCCCC(=O)O)C(=O)N[C@@H](Cc1c[nH]c2ccccc12)C(=O)N[C@@H](CC(C)C)C(=O)N[C@H](C(=O)N[C@@H](CCCNC(=N)N)C(=O)NCC(=O)N[C@@H](CCCNC(=N)N)C(=O)NCC(=O)O)C(C)C [Example 16] | – | – | 0.014 nM | – | 0.4 nM
I: H[Aib]EGTFTSDVSKYLEGQAARKFIAWLVRGRK / II: {C18 diacid-γGlu}-SSSSSS / III: {C18 diacid-γGlu}-SSSSSS / IV: {C18 diacid-γGlu}-SSSSSS (amide I:12-III:C, I:21-II:C, I:31-IV:C) [Example 9] | – | > 1000 nM | 0.067 nM | – | –

From US10266577B2, “GLP-1 derivatives, and uses thereof” (Novo Nordisk A/S, priority 2013, dated 2019)
